Type in all cases: binding
Assay [1] concerns the target T1, BCL6-POZ domain (Homo sapiens, UniProt P41182, C8Q/C67R/C84N).
T1 construct: POZ domain (residues 7 to 128)
Put plainly: 1H-15N TROSY-HSQC NMR chemical shift perturbation (weakest of the series).

Assay [2] concerns the target T1, BCL6-POZ domain. Put plainly: 1H-15N TROSY-HSQC NMR chemical shift perturbation.
Assay [3] addresses T2, BCL6-POZ domain (Homo sapiens, UniProt P41182, C67R/C84N/C8Q).
T2 construct: POZ domain (residues 7 to 128)
Briefly: X-ray crystal structure ([…] Å); 1H-15N TROSY-HSQC NMR titration.

The target of assay [4] is T1, BCL6-POZ domain. Put plainly: 1H-15N TROSY-HSQC NMR chemical shift perturbation; also relieves BCL6 repression in HEK293T luciferase reporter assay. A general note: Reporter assays use an easily measured gene product as a stand-in for the process of interest.

Each structure is given as a SMILES string.

The source of these data is paper PMC3942486, “The Ansamycin Antibiotic, Rifamycin SV, Inhibits BCL6 Transcriptional Repression and Forms a Complex with the BCL6-BTB/POZ Domain” (PLoS ONE, 2014).

As a reminder, the Kd is the concentration at which binding is half-saturated.

Consider `CO[C@H]1/C=C/O[C@@]2(C)Oc3c(C)c(O)c4c(O)c(c5c(nc6cc(C)ccn65)c4c3C2=O)NC(=O)/C(C)=C\C=C\[C@H](C)[C@H](O)[C@@H](C)[C@@H](O)[C@@H](C)[C@H](OC(C)=O)[C@@H]1C` [rifaximin], for which the “1H-15N TROSY-HSQC NMR chemical shift perturbation (weakest of the series)” value in assay [1] is “order of binding from weakest to strongest was: rifaximin, rifapentine, 3-formyl rifamycin, rifampicin, rifamycin SV and rifabutin”.

As to `CO[C@H]1/C=C/O[C@@]2(C)Oc3c(C)c(O)c4c(O)c(c(/C=N/N5CCN(C6CCCC6)CC5)c(O)c4c3C2=O)NC(=O)/C(C)=C\C=C\[C@H](C)[C@H](O)[C@@H](C)[C@@H](O)[C@@H](C)[C@H](OC(C)=O)[C@@H]1C` [rifapentine], in assay [2], the “1H-15N TROSY-HSQC NMR chemical shift perturbation” value was “order of binding from weakest to strongest was: rifaximin, rifapentine, 3-formyl rifamycin, rifampicin, rifamycin SV and rifabutin”.

In the case of `CO[C@H]1/C=C/O[C@@]2(C)Oc3c(C)c(O)c4c(c3C2=O)C2=NC3(CCN(CC(C)C)CC3)NC2=C(NC(=O)/C(C)=C\C=C\[C@H](C)[C@H](O)[C@@H](C)[C@@H](O)[C@@H](C)[C@H](OC(C)=O)[C@@H]1C)C4=O` [rifabutin], the Kd in assay [3] was ~1000 µM.

On to `CO[C@H]1/C=C/O[C@@]2(C)Oc3c(C)c(O)c4c(O)c(cc(O)c4c3C2=O)NC(=O)/C(C)=C\C=C\[C@H](C)[C@H](O)[C@@H](C)[C@@H](O)[C@@H](C)[C@H](OC(C)=O)[C@@H]1C` [rifamycin SV], for which, in assay [4], the “1H-15N TROSY-HSQC NMR chemical shift perturbation; also relieves BCL6 repression” value is “resulted in a subset of peaks shifting in a concentration dependent manner”.

For the compound `CO[C@H]1/C=C/O[C@@]2(C)Oc3c(C)c(O)c4c(O)c(c(/C=N/N5CCN(C)CC5)c(O)c4c3C2=O)NC(=O)/C(C)=C\C=C\[C@H](C)[C@H](O)[C@@H](C)[C@@H](O)[C@@H](C)[C@H](OC(C)=O)[C@@H]1C` [rifampicin], the “1H-15N TROSY-HSQC NMR chemical shift perturbation” value in assay [2] is recorded as “These derivatives all caused spectral changes of varying magnitude with the greatest shifts caused by rifabutin”.
